In brackets after ≈: the same amount, converted by molar mass.
Assays:
[1] = system: Staphylococcus aureus 10 B; experiment: Antibiotic activity in vitro (MIC); format: cell-based
[2] = system: Staphylococcus aureus 2999i+p+; experiment: Antibiotic activity in vitro (MIC); format: cell-based
[3] = system: Staphylococcus aureus A 124; experiment: Antibiotic activity in vitro (MIC); format: cell-based; conditions: A124
[4] = system: Staphylococcus aureus Wood 46; experiment: Antibiotic activity in vitro (MIC); format: cell-based; conditions: WOOD46
[5] = system: Streptococcus pyogenes Aronson 1129; experiment: Antibiotic activity in vitro (MIC); format: cell-based; conditions: ARONSON1129
[6] = system: Streptococcus pneumoniae III/84; experiment: Antibiotic activity in vitro (MIC); format: cell-based
[7] = system: Neisseria meningitidis 1316; experiment: Antibiotic activity in vitro (MIC); format: cell-based
[8] = system: Neisseria gonorrhoeae 1317/4; experiment: Antibiotic activity in vitro (MIC); format: cell-based
[9] = system: Haemophilus influenzae NCTC 4560; experiment: Antibiotic activity in vitro (MIC); format: cell-based; conditions: NCTC4560
Escherichia coli 205 = experiment: Antibiotic activity in vitro (MIC); format: cell-based
[10] = system: Escherichia coli 205 R + TEM; experiment: Antibiotic activity in vitro (MIC); format: cell-based; conditions: read-out: in vitro MIC
Escherichia coli 16 = experiment: Antibiotic activity in vitro (MIC); format: cell-based
Escherichia coli 2018 = experiment: Antibiotic activity in vitro (MIC); format: cell-based
Escherichia coli UB 1005 = experiment: Antibiotic activity in vitro (MIC); format: cell-based; conditions: UB1005
Escherichia coli DC 2 = experiment: Antibiotic activity in vitro (MIC); format: cell-based; conditions: DC2
Escherichia coli B-1385 = experiment: Antibiotic activity in vitro (MIC); format: cell-based; conditions: B1385
[11] = system: Klebsiella pneumoniae 327; experiment: Antibiotic activity in vitro (MIC); format: cell-based
Serratia marcescens 344 = experiment: Antibiotic activity in vitro (MIC); format: cell-based
[12] = system: Enterobacter cloacae P 99; experiment: Antibiotic activity in vitro (MIC); format: cell-based; conditions: P99, read-out: in vitro MIC
[13] = system: Enterobacter cloacae ATCC 13047; experiment: Antibiotic activity in vitro (MIC); format: cell-based; conditions: ATCC13047
Proteus mirabilis 774 = experiment: Antibiotic activity in vitro (MIC); format: cell-based
Proteus mirabilis 1219 = experiment: Antibiotic activity in vitro (MIC); format: cell-based
Proteus rettgeri 856 = experiment: Antibiotic activity in vitro (MIC); format: cell-based; conditions: Providencia rettgeri
Proteus morganii 2359 = experiment: Antibiotic activity in vitro (MIC); format: cell-based; conditions: Morganella morganii
Proteus morganii 1518 = experiment: Antibiotic activity in vitro (MIC); format: cell-based; conditions: Morganella morganii
[14] = system: Pseudomonas aeruginosa ATCC 12055; experiment: Antibiotic activity in vitro (MIC); format: cell-based; conditions: ATCC12055
[15] = system: Pseudomonas aeruginosa K 799/61; experiment: Antibiotic activity in vitro (MIC); format: cell-based; conditions: K799/61, read-out: in vitro MIC
[16] = system: Pseudomonas aeruginosa 143738R; experiment: Antibiotic activity in vitro (MIC); format: cell-based
Clostridium perfringens = experiment: microbe, parasite or virus in culture; format: cell-based; conditions: read-out: in vitro MIC
[17] = system: Bacteroides fragilis L 01; experiment: Antibiotic activity in vitro (MIC); format: cell-based; conditions: L01
[18] = molecular target: T1, dehydropeptidase from human kidneys (Homo sapiens, UniProt P16444); experiment: Stability towards the enzyme dehydropeptidase from human kidneys; format: in vitro ADME; conditions: for half-life: renal dehydropeptidase, enzyme dehydropeptidase from human kidneys, read-out: t1/2 (half-life period), stability towards dehydropeptidase (converted); for half-life period under the action of renal dehydropeptidase compared with compound B: comparison with the racemate compound B, in words
T1 construct: dehydropeptidase from human kidneys; from tissue; host or cells: human kidneys
T1 sequence (P16444 17-411): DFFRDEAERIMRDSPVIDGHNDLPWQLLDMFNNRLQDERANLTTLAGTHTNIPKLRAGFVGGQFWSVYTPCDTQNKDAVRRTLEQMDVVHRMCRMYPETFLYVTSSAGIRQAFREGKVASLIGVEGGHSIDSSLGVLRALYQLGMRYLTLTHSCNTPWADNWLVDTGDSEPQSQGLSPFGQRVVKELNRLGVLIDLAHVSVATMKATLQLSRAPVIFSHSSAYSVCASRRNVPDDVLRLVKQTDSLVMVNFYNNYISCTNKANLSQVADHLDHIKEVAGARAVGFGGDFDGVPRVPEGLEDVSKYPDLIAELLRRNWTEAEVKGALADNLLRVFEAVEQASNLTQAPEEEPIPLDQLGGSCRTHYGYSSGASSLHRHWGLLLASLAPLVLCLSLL
From the text: The stability of compounds A, B and C towards the enzyme dehydropeptidase from human kidneys is as follows (expressed in half-life periods t1/2): […]

Compound | MIC [1] | MIC [2] | MIC [3] | MIC [4] | MIC [5] | MIC [6] | MIC [7] | MIC [8] | MIC [9] | MIC (Escherichia coli 205) | MIC [10] | MIC (Escherichia coli 16) | MIC (Escherichia coli 2018) | MIC (Escherichia coli UB 1005) | MIC (Escherichia coli DC 2) | MIC (Escherichia coli B-1385) | MIC [11] | MIC (Serratia marcescens 344) | MIC [12] | MIC [13] | also measured
C[C@@H](O)[C@H]1C(=O)N2C(C(=O)O)=C(CN)S[C@H]12 (relative stereo) [compound B, (1'R,5R,6S+1'S,5S,6R)-2-aminomethyl-6-(1'hydroxyethyl) -2-penem-3-carboxylic acid, reference compound] | 0.1 mg/L (≈ 0.409 µM) | 0.2 mg/L (≈ 0.819 µM) | 0.2 mg/L (≈ 0.819 µM) | 0.1 mg/L (≈ 0.409 µM) | 0.5 mg/L (≈ 2.05 µM) | 0.2 mg/L (≈ 0.819 µM) | 1 mg/L (≈ 4.09 µM) | 1 mg/L (≈ 4.09 µM) | 2 mg/L (≈ 8.19 µM) | 8 mg/L (≈ 32.8 µM) | 8 mg/L (≈ 32.8 µM) | 8 mg/L (≈ 32.8 µM) | 4 mg/L (≈ 16.4 µM) | 16 mg/L (≈ 65.5 µM) | 16 mg/L (≈ 65.5 µM) | 8 mg/L (≈ 32.8 µM) | 4 mg/L (≈ 16.4 µM) | 8 mg/L (≈ 32.8 µM) | 8 mg/L (≈ 32.8 µM) | 16 mg/L (≈ 65.5 µM) | MIC (Proteus mirabilis 774): 4 mg/L (≈ 16.4 µM); MIC (Proteus mirabilis 1219): 8 mg/L (≈ 32.8 µM); MIC (Proteus rettgeri 856): 1 mg/L (≈ 4.09 µM); MIC (Proteus morganii 2359): 2 mg/L (≈ 8.19 µM); MIC (Proteus morganii 1518): 4 mg/L (≈ 16.4 µM); MIC [14]: 0.1 mg/L (≈ 0.409 µM); MIC [15]: 0.2 mg/L (≈ 0.819 µM); MIC [16]: 2 mg/L (≈ 8.19 µM); MIC (Clostridium perfringens): 4 mg/L (≈ 16.4 µM); MIC [17]: 1 mg/L (≈ 4.09 µM); half-life [18]: 2.2 h
C[C@@H](O)[C@H]1C(=O)N2C(C(=O)O)=C(CN)S[C@H]12 [compound A, (5R,6S)-2-aminomethyl-6-[(1'R)-1-hydroxyethyl]-2-penem-3-carboxylic acid] | 0.05 mg/L (≈ 0.205 µM) | 0.05 mg/L (≈ 0.205 µM) | 0.1 mg/L (≈ 0.409 µM) | 0.05 mg/L (≈ 0.205 µM) | 0.2 mg/L (≈ 0.819 µM) | 0.1 mg/L (≈ 0.409 µM) | 0.5 mg/L (≈ 2.05 µM) | 0.5 mg/L (≈ 2.05 µM) | 1 mg/L (≈ 4.09 µM) | 2 mg/L (≈ 8.19 µM) | 4 mg/L (≈ 16.4 µM) | 4 mg/L (≈ 16.4 µM) | 2 mg/L (≈ 8.19 µM) | 4 mg/L (≈ 16.4 µM) | 8 mg/L (≈ 32.8 µM) | 4 mg/L (≈ 16.4 µM) | 2 mg/L (≈ 8.19 µM) | 4 mg/L (≈ 16.4 µM) | 4 mg/L (≈ 16.4 µM) | 4 mg/L (≈ 16.4 µM) | MIC (Proteus mirabilis 774): 1 mg/L (≈ 4.09 µM); MIC (Proteus mirabilis 1219): 2 mg/L (≈ 8.19 µM); MIC (Proteus rettgeri 856): 0.5 mg/L (≈ 2.05 µM); MIC (Proteus morganii 2359): 0.5 mg/L (≈ 2.05 µM); MIC (Proteus morganii 1518): 2 mg/L (≈ 8.19 µM); MIC [14]: 0.05 mg/L (≈ 0.205 µM); MIC [15]: 0.1 mg/L (≈ 0.409 µM); MIC [16]: 0.5 mg/L (≈ 2.05 µM); MIC (Clostridium perfringens): 2 mg/L (≈ 8.19 µM); MIC [17]: 0.5 mg/L (≈ 2.05 µM); half-life period under the action of renal dehydropeptidase compared with compound B [18]: considerably greater half-life period
NCC1=C(C(=O)O)N2C(=O)[C@H](CO)[C@H]2S1 [compound C, (5R,6S)-2-aminomethyl-6-hydroxymethyl-2-penem-3-carboxylic acid] | 0.2 mg/L (≈ 0.869 µM) | 0.5 mg/L (≈ 2.17 µM) | 1 mg/L (≈ 4.34 µM) | 0.2 mg/L (≈ 0.869 µM) | 2 mg/L (≈ 8.69 µM) | 0.5 mg/L (≈ 2.17 µM) | 1 mg/L (≈ 4.34 µM) | 1 mg/L (≈ 4.34 µM) | 1 mg/L (≈ 4.34 µM) | 1 mg/L (≈ 4.34 µM) | 2 mg/L (≈ 8.69 µM) | 2 mg/L (≈ 8.69 µM) | 1 mg/L (≈ 4.34 µM) | 2 mg/L (≈ 8.69 µM) | 4 mg/L (≈ 17.4 µM) | 2 mg/L (≈ 8.69 µM) | 1 mg/L (≈ 4.34 µM) | 2 mg/L (≈ 8.69 µM) | 4 mg/L (≈ 17.4 µM) | 4 mg/L (≈ 17.4 µM) | MIC (Proteus mirabilis 774): 1 mg/L (≈ 4.34 µM); MIC (Proteus mirabilis 1219): 4 mg/L (≈ 17.4 µM); MIC (Proteus rettgeri 856): 0.5 mg/L (≈ 2.17 µM); MIC (Proteus morganii 2359): 1 mg/L (≈ 4.34 µM); MIC (Proteus morganii 1518): 2 mg/L (≈ 8.69 µM); MIC [14]: 0.2 mg/L (≈ 0.869 µM); MIC [15]: 0.5 mg/L (≈ 2.17 µM); MIC [16]: 2 mg/L (≈ 8.69 µM); MIC (Clostridium perfringens): 32 mg/L (≈ 139 µM); MIC [17]: 2 mg/L (≈ 8.69 µM); half-life period under the action of renal dehydropeptidase compared with compound B [18]: considerably greater half-life period; half-life [18]: 5.5 h

Reference: patent US4656165A, “Aminomethyl penem compounds” (priority 1983, dated 1987)
